# “Also recorded” adds a separate entry of the source. Read-outs that look alike come from different tables or passages of the source.
# Columns and labels:
# [1] = test system: rat isolated thoracic aorta (aortic rings); experiment: Vasorelaxation (direct relaxation assay) in precontracted aortic rings; type: cell-based; conditions: for Emax: read-out: Rmax (%) maximum response in the relaxation assay; for vasorelaxation activity in the relaxation assay: FIG. 1b, qualitative
# Source text: (§1) Vascular activity can be tested in standard organ bath assays using rat isolated thoracic aorta. The synthesized flavonols were first assayed for their ability to inhibit contractions induced by phenylephrine (PE), since it has been previously shown that flavonols can act as functional antagonists of PE. Next, the efficacy of the various flavonols would be determined in a direct relaxation assay. […] It was expected that the flavonols should reduce the magnitude of PE-induced contractions in endothelium-intact aortic rings, thus reducing the maximum response (Rmax) for PE-induced contractions.
# (§2) Male Sprague-Dawley rats (200-400 g) were euthanised by exposure to 80% CO2, 20% O2, and their chests opened to isolate the thoracic aortae. After the removal of superficial connective tissues, the aorta was cut into ring segments, of approximately 2-3 mm in length. The aortic rings were then mounted between two stainless steel wires, one of which was linked to an isometric force transducer connected to a chart recorder, and the other end anchored to a glass rod submerged in a standard 10 mL organ bath. The organ bath was filled with Krebs-bicarbonate solution [composition (mM): NaCl, 118.0; KCl, 4.7; KH2PO4, 1.2; MgSO4.7H2O, 1.2; glucose, 5.0; NaHCO3, 25.0; CaCl2.2H2O, 2.5]. The bath medium was maintained at 37° C., pH 7.4 and continuously aerated with 95% O2, 5% CO2.
# Aortic rings were equilibrated for 1 h at a resting tension of 1 g, then were precontracted with an isotonic, high potassium physiological salt solution (KPSS) in which all of the NaCl of the normal Krebs solution was replaced with KCl (122.7 mM), so as to achieve maximal contraction. The solution was then washed out and replaced with normal Krebs solution. After re-equilibration, the rings were submaximally contracted with phenylephrine (PE, 10^−8-10^−7 M) and endothelial integrity was tested by a single dose of acetylcholine (Ach, 10^−5 M). Only rings that responded to Ach (≧90% relaxation) were judged endothelium intact and were used in the subsequent experiments. The aortic rings were then re-equilibrated (15 min) before the subsequent experiment.
# Aortic rings were precontracted submaximally with phenylephrine (10^−8-10^−7 M) and the thromboxane mimetic, 9,11-dideoxy-9α,11α-epoxymethano-prostaglandin F2α (U46619, 10^−10-10^−9 M) to approximately 50% of KPSS-induced contraction. After stabilization of the contraction, cumulative doses of the flavonol or vehicle (10^−10-10^−4 M) were added to generate a concentration-response curve. Relaxant responses were expressed as a percentage of the precontraction tension.
# The results are expressed as the mean±s.e. mean and n indicates the number of experiments (rats). Relaxation concentration-response curves for diOHF were computer fitted to a sigmoidal curve using non-linear regression (Prism version 4) to enable calculation of pEC50 of the flavonols. […] Maximum relaxation responses were compared using a one way analysis of variance (ANOVA) with post-hoc multiple comparison using Newman-Keuls test. Superoxide levels were compared using a one way analysis of variance (ANOVA) with post hoc multiple comparison using Dunnett's test.
# [2] = Solubility of succinamic acid flavonols in 0.1 M Na2CO3 solution; type: physicochemical; conditions: for maximum concentrations attained: in 0.1 M Na2CO3 solution; for solubility in comparison with the unmodified moiety: qualitative
# Description: Acetylcholine perchlorate was obtained from BDH Chemicals (Poole, Dorset, England). Phenylephrine and propranolol was purchased from Sigma-Aldrich Pty. Ltd. (Castle Hill, NSW, Australia). DiOHF was purchased from Indofine Chemical Co. Inc. (Belle Mead, N.J., U.S.A.). All other flavonols were synthesized in this study. […] was purchased from Cayman Chemical (Ann Arbor, Mich., U.S.A.). All chemicals were dissolved in distilled water, except the following. DiOHF was dissolved in 10% dimethyl sulphoxide (DMSO), 90% methanol, with subsequent dilutions in 50% methanol (10^−3 M), and distilled water (10^−4-10^−7 M). Succinamic acid-substituted flavonols were dissolved in 0.1 M Na2CO3 as a stock solution (B and C at 10^−1 and D at 10^−2 M), and further diluted in distilled water as required.
# [3] = test system: rat isolated thoracic aorta (endothelium-intact aortic rings), PE-induced contractions; experiment: Effect of flavonols on phenylephrine-induced vasoconstriction (organ bath); type: cell-based; conditions: FIG. 1a, compared with diOHF, qualitative
# Source text: as §1, §2
# Aortic rings were equilibrated for 1 h at a resting tension of 1 g, then were precontracted with an isotonic, high potassium physiological salt solution (KPSS) in which all of the NaCl of the normal Krebs solution was replaced with KCl (122.7 mM), so as to achieve maximal contraction. The solution was then washed out and replaced with normal Krebs solution. […]
# Aortic rings were incubated with a β-adrenoceptor antagonist, propranolol (10^−5 M), and either vehicle or flavonol (10^−4-10^−5 M) for 15 min before cumulative doses of phenylephrine (10^−9-10^−4.5 M) were added to generate a concentration-response curve to phenylephrine. Contraction responses were expressed as a percentage of KPSS-induced tension.
# [4] = test system: superoxide (NADPH oxidase-driven) in isolated rat aortic rings; experiment: Lucigenin-enhanced chemiluminescence assay of superoxide in isolated aortic rings; type: cell-based; conditions: rat aortic rings incubated with NADPH; FIG. 2; compared with diOHF; qualitative
# Description: Since the vascular activity of the synthesized flavonols was attenuated, it was of great interest to test these compounds for antioxidant activity. Antioxidant activity can be assessed in a tissue-based lucigenin-enhanced chemiluminescence assay. Isolated rat aortic rings were incubated with NADPH and the various flavonols. NADPH, a substrate for NADPH oxidase in the vasculature, increases superoxide production. Superoxide that is produced reacts with lucigenin, leading to the emission of photons, which can be quantified to give a measure of superoxide levels.
# Superoxide concentrations were measured in isolated aortic rings by lucigenin-enhanced chemiluminescence. Prior to assaying, the aortic rings were incubated at 37° C. for 1 h in Krebs-EPES buffer containing DETCA (3×10^−5 M), which inactivates superoxide dismutase, NADPH (10^−4 M) and either vehicle, succinamic acid-substituted flavonol (10^−4 or 10^−5 M) or diOHF (10^−4 or 10^−5 M). Assay solutions consisting of lucigenin (5×10^−6 M), NADPH (10^−4 M) and either vehicle (DMSO), succinamic acid-substituted flavonol (10^−4 or 10^−5 M) or 3′,4′-dihydroxyflavonol (diOHF, 10^−4 or 10^−5 M), as a positive control, were prepared in Krebs-HEPES buffer [composition (mM): NaCl, 99.0; KCl, 4.7; KH2PO4, 1.0; MgSO4.7H2O, 1.2; glucose, 11.0; NaHCO3, 25.0; CaCl2.2H2O, 2.5; Na-HEPES, 20.0]. 300 μL aliquots of the assay solution were placed into separate wells on a 96-well Optiplate, which was loaded into a TopCount single photon counter (Packard Bioscience) to determine the background emission (12 cycles). After background counting was completed, one aortic ring was added per well, and photon emission was counted (12 cycles). Superoxide levels were reported as a percentage of photon emission for +NADPH control. At the conclusion of the assay, the aortic rings were dried for 48 h at 80° C. for normalization of superoxide production to dry tissue weight.
# The results are expressed as the mean±s.e. mean and n indicates the number of experiments (rats). […]
# [5] = rat aortic rings precontracted with phenylephrine and U46619, percentage of precontraction tension, mean ± s.e. mean
maximum concentrations attained [2],solubility in comparison with the unmodified moiety [2],SMILES,Emax ([1]; Rattus norvegicus),"EC50 ([1]; Rattus norvegicus, read-out: pEC50 (relaxation) (converted))",inhibition of PE-induced contractions (vascular activity) [3],vasorelaxation activity in the relaxation assay [1],"Emax [1, 5]",antioxidant activity (superoxide levels) [4]
,,"O=c1c(O)c(-c2ccc(O)c(O)c2)oc2ccccc12 [diOHF, 3′,4′-dihydroxyflavonol, reference compound]",105 ± 2%,4.68 µM,,,,
10^−2 M,improved solubility,"O=C(O)CCC(=O)Nc1ccc2oc(-c3ccc(O)c(O)c3)c(O)c(=O)c2c1 [D, 3′,4′-Dihydroxy-6-(hydroxycarbonylethylcarbonylamino)flavonol]",,,less effective than diOHF; also recorded: vascular activity was completely abolished,slight contractions were observed at high concentrations,-25 ± 3%,moderate to good antioxidant activity; also recorded: superoxide levels were substantially reduced
10^−1 M,improved solubility,"O=C(O)CCC(=O)Nc1ccc2oc(-c3ccccc3)c(O)c(=O)c2c1 [B, 6-(Hydroxycarbonylethylcarbonylamino)flavonol]",,,less effective than diOHF,weak vasorelaxation activity,47 ± 2%,moderate to good antioxidant activity
10^−1 M,improved solubility,"O=C(O)CCC(=O)Nc1ccc2oc(-c3ccc(O)cc3)c(O)c(=O)c2c1 [C, 4′-Hydroxy-6-(hydroxycarbonylethylcarbonylamino)flavonol]",,,less effective than diOHF,weak vasorelaxation activity,80 ± 5%,little effect

# Reference: US7863323B1, “Flavonols” (The University of Melbourne, priority 2006, dated 2011)
